Article PMC4428071, “Structural basis for epitope masking and strain specificity of a conserved epitope in an intrinsically disordered malaria vaccine candidate” (Scientific Reports, 2015)
pKd: −log10 of the molar value.

Molecular target: 6D8 scFv
Assay: Isothermal titration calorimetry (ITC) of MSP2 and peptides into 6D8 scFv
Assay type: binding, mouse
Conditions: ITC into 6D8 scFv; 20 mM sodium phosphate, 150 mM NaCl, pH 7.4, 25°C; scFv 20 µM, titrant from 200 µM stocks; error estimates from replicate titrations against 6D8 scFv and mAb (n = 3–5); limit of determinable affinities approx. 5 nM
Source text: The interaction between 6D8 and MSP2, was examined further using isothermal titration calorimetry (ITC). […] Full-length recombinant MSP2 binds 6D8 scFv with lower affinity, permitting quantification by ITC. Even though 6D8 recognizes a fully conserved epitope in MSP2, the affinities of 6D8 scFv for full-length 3D7 and FC27 MSP2 differ by as much as 5-fold (Fig. 3C,D). To explore the basis of this strain-specificity, we synthesized peptides encompassing the minimal 6D8 epitope and extending C-terminally into the variable region. […] Identical affinities were observed when 6D8 IgG was used in place of the scFv (Fig. S4).
The affinity of 6D8 IgG and scFv for synthetic peptides and recombinant MSP2 was determined by ITC (Microcal ITC-200, GE Healthcare) and SPR (Biacore T200, GE Healthcare) using a Mouse Antibody Capture kit (GE Healthcare) (SI Materials and methods). Antibody binding to lipid-tethered MSP2 was assessed SPR using an L1 chip (GE Healthcare). Vesicles of POPC containing 1 mol % DOGS-NTA were adsorbed onto the chip, and loaded with Ni^2+ and then FC27 MSP2–6His. […]
MSP2 peptides were purified on a reverse-phase C18 column (Zorbax, 10 x 300 mm) using a linear gradient of 5 to 40% of solvent B (90% acetonitrile / 9.9% water / 0.1% TFA) against solvent A (0.1% TFA in water) over 40 min. The purity of MSP2 peptides was assessed by mass spectrometry (LC-MS). […]

**Q.** How did the pKd turn out when Ac-NAYNMSIRR-NH2 [MSP2_14-22] was run?
**A.** ~8.30
